Reference: patent US9000037B2, “Precursors of glutamate derivatives” (Piramal Imaging SA, priority 2011, dated 2015)

Experiments:
[1] = Stability of example compounds in solid form (HPLC); assay type: physicochemical; conditions: for Solid (%) Start: purity by HPLC before the study; for Solid (%) 1 week 0° C. / Solid (%) 1 week −20° C. / Solid (%) 2 week 0° C. / Solid (%) 2 week −20° C. / Solid (%) 3 week 0° C. / Solid (%) 3 week −20° C. / Solid (%) 4 week 0° C. / Solid (%) 4 week −20° C.: amber vial under Ar; for Solid (%) 2 week 0° C. / Solid (%) 2 week −20° C.: 2 weeks; for Solid (%) 3 week 0° C. / Solid (%) 3 week −20° C.: 3 weeks; for Solid (%) 4 week 0° C. / Solid (%) 4 week −20° C.: 4 weeks
Description: Method A1 (analytics of di-tert-butyl (4S)-4-(3-hydroxypropyl)-N-trityl-L-glutamate • Column: ChiralPak IA, 4.6×250 mm • Mobile phase: 5% IPA/n-heptane • Flow rate: 1 mL/min • Wavelength: 214/254 nm Method A2 (for Id) • Column: X-Bridge • Mobile phase: Acetonitrile/water 20:80 to 100% water • Flow rate: 1 mL/min • Wavelength: 214 nm Method A3 (for Ia to Ic and Ie to II) • Column: X-Bridge • Mobile phase: Acetonitrile/water […] to 100% water • Flow rate: 1 mL/min • Wavelength: 214 nm Method A4 (^19F-fluorination) • Column: Phenomenex Lux 5U Amylose-2 • Mobile phase: 10% IPA/Hex • Flow rate: 1 mL/min • Wavelength: 214 nm Method A5 (^18F-radiolabeling) • Column: Phenomenex Luna 5μ C18(2); 250*4.6 mm • Mobile phase: A: Na2HPO4 10 mM pH 7.4, B: acetonitrile • Gradient: 0 min 12% B, 15 min 12% B, 16 min 100% B, 18 min 100% B, 20 min 12% B, 23 min 12% B • Flow rate: 1.2 mL/min • Wavelength: 340 nm • Derivatization: […] of the product solution are mixed with […] OPA reagent (Thermo Scientific, No.:26015). After 1 min reaction at room temperature the solution is applied to the HPLC
The stability of the compounds of formula I were examined in solid form at two different temperatures: 0° C., and −20° C. The precursors were tested weekly for 4 weeks. Before the study, purities of the precursors were determined individually by HPLC analysis.
1. Solid state: 3-5 mg of the respective precursor Ia to Ij were put into 8 amber vials, which were flushed with Ar gas and capped. Each four vials containing precursor were stored at 0° C., and −20° C. Every week for 4 weeks, 1 mg of precursor was dissolved in acetonitrile (1.0 mL). 10 μL of solution was injected into HPLC (method A2 or A3, respectively).

[2] = 19F-fluorination of precursors, reaction rates; assay type: physicochemical; conditions: for krel (relative reaction rate): 19F-fluorination, slowest reaction (If) defined as 1; for reaction rate of 19F-fluorination, in words: comparison among precursors
Description: Precursor (0.01 mmol) was dissolved in acetonitrile (0.5 mL), and 1.0 M TBAF/acetonitrile solution (20 μL, 0.02 mmol) was added. The reaction mixture was stirred at 80° C. for 2 h. 40 μL of solution was taken at 5, 10, 20, 40, 60, 90, and 120 min for HPLC analysis (method A4).
^19F-Fluorination was performed as described in “General procedures”. The progress of the reaction was examined after 5, 10, 20, 40, 60, 90, and 120 min. Plotting the percentage of the conversation versus the time, the reaction rates were calculated.

tumor = conditions: cited from earlier work

SMILES	Solid (%) Start [1] [%]	Solid (%) 1 week 0° C. [1] [%]	Solid (%) 1 week −20° C. [1] [%]	Solid (%) 2 week 0° C. [1] [%]	Solid (%) 2 week −20° C. [1] [%]	Solid (%) 3 week 0° C. [1] [%]	Solid (%) 3 week −20° C. [1] [%]	Solid (%) 4 week 0° C. [1] [%]	Solid (%) 4 week −20° C. [1] [%]	krel (relative reaction rate) [2]	reaction rate of 19F-fluorination, in words [2]	tumor uptake (tumor; first clinical studies)	defluorination (tumor; in vivo)	results in first clinical studies (tumor; compared with [18F]-4-fluoro-glutamic acid)	detection of lung cancer (tumor; first clinical studies)
CC(C)(C)OC(=O)[C@@H](CCCOS(=O)(=O)c1ccc([N+](=O)[O-])cc1)C[C@H](NC(c1ccccc1)(c1ccccc1)c1ccccc1)C(=O)OC(C)(C)C [Ia, Di-tert-butyl (4S)-4-(3-{[(4-nitrophenyl)sulfonyl]oxy}propyl)-N-trityl-L-glutamate]	99.4	99.5	99.4	99.3	99.2	99.1	99.0	98.7	98.4	6.93	Fastest conversion	–	–	–	–
CC(C)(C)OC(=O)[C@@H](CCCOS(=O)(=O)c1cccc([N+](=O)[O-])c1)C[C@H](NC(c1ccccc1)(c1ccccc1)c1ccccc1)C(=O)OC(C)(C)C [Ib, Di-tert-butyl (4S)-4-(3-{[(3-nitrophenyl)sulfonyl]oxy}propyl)-N-trityl-L-glutamate]	96.7	96.5	96.6	94.6	94.8	95.0	93.7	91.3	94.3	9.86	Fastest conversion	–	–	–	–
N[C@@H](CC([18F])C(=O)O)C(=O)O (some centres unmarked) [[^18F]-4-fluoro-glutamic acid]	–	–	–	–	–	–	–	–	–	–	–	good tumor uptake	some defluorination was detected	–	–
N[C@@H](C[C@H](CCC[18F])C(=O)O)C(=O)O [(S)-4-(3-[^18F]Fluoropropyl)-L-glutamic acid]	–	–	–	–	–	–	–	–	–	–	–	–	–	Superior results	Very good results

Second part, led by results:

Solid (%) Start [1] [%]	Solid (%) 1 week 0° C. [1] [%]	Solid (%) 1 week −20° C. [1] [%]	Solid (%) 2 week 0° C. [1] [%]	Solid (%) 2 week −20° C. [1] [%]	Solid (%) 3 week 0° C. [1] [%]	Solid (%) 3 week −20° C. [1] [%]	Solid (%) 4 week 0° C. [1] [%]	Solid (%) 4 week −20° C. [1] [%]	SMILES	krel (relative reaction rate) [2]	reaction rate of 19F-fluorination, in words [2]	tumor uptake (tumor; first clinical studies)	defluorination (tumor; in vivo)	results in first clinical studies (tumor; compared with [18F]-4-fluoro-glutamic acid)	detection of lung cancer (tumor; first clinical studies)
97.6	94.4	94.6	95.0	94.8	93.1	93.1	93.4	92.8	CC(C)(C)OC(=O)[C@@H](CCCOS(=O)(=O)c1ccc([N+](=O)[O-])c(C(F)(F)F)c1)C[C@H](NC(c1ccccc1)(c1ccccc1)c1ccccc1)C(=O)OC(C)(C)C [Ih, Di-tert-butyl (4S)-4-[3-({[4-nitro-3-(trifluoromethyl)phenyl]sulfonyl}oxy)propyl]-N-trityl-L-glutamate]	–	–	–	–	–	–
99.8	99.8	99.8	–	–	99.8	99.8	99.8	99.8	CC(C)(C)OC(=O)[C@@H](CCCOS(=O)(=O)c1ccc2ccccc2c1)C[C@H](NC(c1ccccc1)(c1ccccc1)c1ccccc1)C(=O)OC(C)(C)C [Id, Di-tert-butyl (4S)-4-{3-[(2-naphthylsulfonyl)oxy]propyl}-N-trityl-L-glutamate]	2.38	–	–	–	–	–
99.1	99.0	98.9	99.0	99.0	99.0	98.6	98.6	97.9	CC(C)(C)OC(=O)[C@@H](CCCOS(=O)(=O)c1cccc2ccccc12)C[C@H](NC(c1ccccc1)(c1ccccc1)c1ccccc1)C(=O)OC(C)(C)C [Ie, Di-tert-butyl (4S)-4-{3-[(1-naphthylsulfonyl)oxy]propyl}-N-trityl-L-glutamate]	2.45	–	–	–	–	–
97.9	97.9	98.0	98.0	98.1	97.9	97.9	97.8	97.5	CC(C)(C)OC(=O)[C@@H](CCCOS(=O)(=O)c1ccc(-c2ccc(S(=O)(=O)OCCC[C@@H](C[C@H](NC(c3ccccc3)(c3ccccc3)c3ccccc3)C(=O)OC(C)(C)C)C(=O)OC(C)(C)C)cc2)cc1)C[C@H](NC(c1ccccc1)(c1ccccc1)c1ccccc1)C(=O)OC(C)(C)C [Ig, Tetra-tert-butyl (2S,4S,2′S,4′S)-2,2′-[biphenyl-4,4′-diylbis(sulfonyloxypropane-3,1-diyl)]bis[4-(tritylamino)pentanedioate]]	11.8	Fastest conversion	–	–	–	–
90.5	89.5	89.6	89.0	88.5	89.0	88.3	89.0	87.0	CC(C)(C)OC(=O)[C@@H](CCCOS(=O)(=O)c1cccc2cccnc12)C[C@H](NC(c1ccccc1)(c1ccccc1)c1ccccc1)C(=O)OC(C)(C)C [If, Di-tert-butyl (4S)-4-{3-[(quinolin-8-ylsulfonyl)oxy]propyl}-N-trityl-L-glutamate]	1.0	slowest reaction	–	–	–	–
98.8	98.6	98.6	98.6	98.7	98.6	96.9	98.4	98.0	CC(C)(C)OC(=O)[C@@H](CCCOS(=O)(=O)c1ccc(-c2ccccc2)cc1)C[C@H](NC(c1ccccc1)(c1ccccc1)c1ccccc1)C(=O)OC(C)(C)C [Ic, Di-tert-butyl (4S)-4-{3-[(biphenyl-4-ylsulfonyl)oxy]propyl}-N-trityl-L-glutamate]	2.93	–	–	–	–	–
97.2	89.5	89.6	97.0	97.0	96.7	95.6	95.9	93.2	CC(C)(C)OC(=O)[C@@H](CCCOS(=O)(=O)c1c(Cl)cc(Cl)cc1Cl)C[C@H](NC(c1ccccc1)(c1ccccc1)c1ccccc1)C(=O)OC(C)(C)C [Ii, Di-tert-butyl (4S)-4-(3-{[(2,4,6-trichlorophenyl)sulfonyl]oxy}propyl)-N-trityl-L-glutamate]	1.88	–	–	–	–	–
